{
  "source": "patent US6355799B1",
  "about": "“Substituted benzene compounds, process for their preparation, and herbicidal and defoliant compositions containing them” (ISK Americas Incorporated, priority 1997, dated 2002)",
  "format_in_all_cases": "in vivo",
  "key": {"[1]": {"system": "upland rice (Oryza sp., var. Tebonnet, RICE)", "assay": "Post-emerge test, crop safety", "conditions": "post-emerge, 14 days after application, rating scale 0-100", "outline": "(§1)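 Applied at 15–1000 g ai/ha from acetone in 187 l/ha spray volume. Post-emergence applications included 0.25% v/v non-ionic surfactant and reached plants sown 8–21 days before. Pre-emergence applications were incorporated by surface watering. Efficacy or crop damage was rated on a 0–100 scale after 14 days.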"}, "[2]": {"system": "field corn (Zea mays L., var. Dekalb 535, CORN)", "assay": "Post-emerge test, crop safety", "conditions": "post-emerge, 14 days after application, rating scale 0-100", "outline": "as §1"}, "[3]": {"system": "upland rice (Oryza sp., var. Tebonnet, RICE)", "assay": "Pre-emerge test, crop safety", "conditions": "pre-emerge, 14 days after application, scale 0-100", "outline": "(§2)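 Herbicidal damage is scored 0 (none) to 100 (complete plant death) two weeks after a simulated field spray. Rates span 15–1000 g ai/ha, delivered in acetone at 187 l/ha. For post-emergence treatments, plants have 2–3 leaves and the spray carries 0.25% v/v non-ionic surfactant.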"}, "[4]": {"system": "field corn (Zea mays L., var. Dekalb 535, CORN)", "assay": "Pre-emerge test, crop safety", "conditions": "pre-emerge, 14 days after application, scale 0-100", "outline": "as §2"}, "[5]": {"system": "redroot pigweed (Amaranthus retroflexus, AMARE)", "assay": "Pre-emerge test, greenhouse herbicide activity screening", "conditions": "pre-emerge, 14 days after application, scale 0-100", "outline": "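Plants grown in 10 cm pots of sandy loam mix received acetone-dissolved compounds through a moving flat-fan nozzle. Doses ranged from 15 to 1000 g ai/ha. Pre-emerge pots were seeded one day earlier, post-emerge pots 8–21 days earlier. Fourteen days on, each pot was graded 0–100 for damage.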"}, "[6]": {"system": "sicklepod (Cassia obtusifolia, CASOB)", "assay": "Pre-emerge test, greenhouse herbicide activity screening", "conditions": "pre-emerge, 14 days after application, scale 0-100", "outline": "as §1"}, "[7]": {"system": "green foxtail (Setaria viridis, SETVI)", "assay": "Pre-emerge test, greenhouse herbicide activity screening", "conditions": "pre-emerge, 14 days after application, scale 0-100", "outline": "as §1"}, "[8]": {"system": "large crabgrass (Digitaria sanguinalis, DIGSA)", "assay": "Pre-emerge test, greenhouse herbicide activity screening", "conditions": "pre-emerge, 14 days after application, scale 0-100", "outline": "as §1"}, "[9]": {"system": "johnsongrass (Sorghum halepense, SORHA)", "assay": "Pre-emerge test, greenhouse herbicide activity screening", "conditions": "pre-emerge, 14 days after application, scale 0-100", "outline": "as §1"}, "[10]": {"system": "lambsquarters (Chenopodium album, CHEAL)", "assay": "Pre-emerge test, greenhouse herbicide activity screening", "conditions": "pre-emerge, 14 days after application, scale 0-100", "outline": "as §1"}, "[11]": {"system": "velvetleaf (Abutilon theophrasti, ABUTH)", "assay": "Pre-emerge test, greenhouse herbicide activity screening", "conditions": "pre-emerge, 14 days after application, scale 0-100", "outline": "as §1"}, "[12]": {"system": "barnyardgrass (Echinochloa crus-galli, ECHCG)", "assay": "Pre-emerge test, greenhouse herbicide activity screening", "conditions": "pre-emerge, 14 days after application, scale 0-100", "outline": "as §1"}, "[13]": {"system": "ivyleaf morningglory (Ipomoea hederacea, IPOHE)", "assay": "Pre-emerge test, greenhouse herbicide activity screening", "conditions": "pre-emerge, 14 days after application, scale 0-100", "outline": "as §1"}, "[14]": {"system": "sicklepod (Cassia obtusifolia, CASOB)", "assay": "Post-emerge test, greenhouse herbicide activity screening", "conditions": "post-emerge, 14 days after application, rating scale 0-100", "outline": "as §2"}, "[15]": {"system": "green foxtail (Setaria viridis, SETVI)", "assay": "Post-emerge test, greenhouse herbicide activity screening", "conditions": "post-emerge, 14 days after application, rating scale 0-100", "outline": "as §2"}, "[16]": {"system": "large crabgrass (Digitaria sanguinalis, DIGSA)", "assay": "Post-emerge test, greenhouse herbicide activity screening", "conditions": "post-emerge, 14 days after application, rating scale 0-100", "outline": "as §2"}, "[17]": {"system": "redroot pigweed (Amaranthus retroflexus, AMARE)", "assay": "Post-emerge test, greenhouse herbicide activity screening", "conditions": "post-emerge, 14 days after application, rating scale 0-100", "outline": "as §2"}, "[18]": {"system": "johnsongrass (Sorghum halepense, SORHA)", "assay": "Post-emerge test, greenhouse herbicide activity screening", "conditions": "post-emerge, 14 days after application, rating scale 0-100", "outline": "as §2"}, "[19]": {"system": "lambsquarters (Chenopodium album, CHEAL)", "assay": "Post-emerge test, greenhouse herbicide activity screening", "conditions": "post-emerge, 14 days after application, rating scale 0-100", "outline": "as §2"}, "[20]": {"system": "velvetleaf (Abutilon theophrasti, ABUTH)", "assay": "Post-emerge test, greenhouse herbicide activity screening", "conditions": "post-emerge, 14 days after application, rating scale 0-100", "outline": "as §2"}, "[21]": {"system": "barnyardgrass (Echinochloa crus-galli, ECHCG)", "assay": "Post-emerge test, greenhouse herbicide activity screening", "conditions": "post-emerge, 14 days after application, rating scale 0-100", "outline": "as §2"}, "[22]": {"system": "ivyleaf morningglory (Ipomoea hederacea, IPOHE)", "assay": "Post-emerge test, greenhouse herbicide activity screening", "conditions": "post-emerge, 14 days after application, rating scale 0-100", "outline": "as §2"}},
  "data": [
    {"smiles": "COc1c(Cl)cc(F)c(-n2c(=O)cc(C(F)(F)F)n(C)c2=O)c1NC(=O)CSc1ccc2ccccc2c1", "note": "[2-169]", "values": [
      {"measurement": "RICE phytotoxicity rating (crop damage)", "setting": "[1]; 63 g ai/ha", "result": 10},
      {"measurement": "RICE phytotoxicity rating (crop damage)", "setting": "[1]; 250 g ai/ha", "result": 10},
      {"measurement": "CORN phytotoxicity rating (crop damage)", "setting": "[2]; 63 g ai/ha", "result": 10},
      {"measurement": "CORN phytotoxicity rating (crop damage)", "setting": "[2]; 250 g ai/ha", "result": 10},
      {"measurement": "phytotoxicity rating RICE (crop damage)", "setting": "[3]; 63 g ai/ha", "result": 10},
      {"measurement": "phytotoxicity rating RICE (crop damage)", "setting": "[3]; 250 g ai/ha", "result": 40},
      {"measurement": "phytotoxicity rating CORN (crop damage)", "setting": "[4]; 63 g ai/ha", "result": 0},
      {"measurement": "phytotoxicity rating CORN (crop damage)", "setting": "[4]; 250 g ai/ha", "result": 0},
      {"measurement": "phytotoxicity rating AMARE", "setting": "[5]; 63 g ai/ha", "result": 70},
      {"measurement": "phytotoxicity rating AMARE", "setting": "[5]; 250 g ai/ha", "result": 80},
      {"measurement": "phytotoxicity rating CASOB", "setting": "[6]; 63 g ai/ha", "result": 20},
      {"measurement": "phytotoxicity rating CASOB", "setting": "[6]; 250 g ai/ha", "result": 30},
      {"measurement": "phytotoxicity rating SETVI", "setting": "[7]; 63 g ai/ha", "result": 0},
      {"measurement": "phytotoxicity rating SETVI", "setting": "[7]; 250 g ai/ha", "result": 30},
      {"measurement": "phytotoxicity rating DIGSA", "setting": "[8]; 63 g ai/ha", "result": 0},
      {"measurement": "phytotoxicity rating DIGSA", "setting": "[8]; 250 g ai/ha", "result": 80},
      {"measurement": "phytotoxicity rating SORHA", "setting": "[9]; 63 g ai/ha", "result": 0},
      {"measurement": "phytotoxicity rating SORHA", "setting": "[9]; 250 g ai/ha", "result": 20},
      {"measurement": "phytotoxicity rating CHEAL", "setting": "[10]; 63 g ai/ha", "result": 65},
      {"measurement": "phytotoxicity rating CHEAL", "setting": "[10]; 250 g ai/ha", "result": 100},
      {"measurement": "phytotoxicity rating ABUTH", "setting": "[11]; 63 g ai/ha", "result": 0},
      {"measurement": "phytotoxicity rating ABUTH", "setting": "[11]; 250 g ai/ha", "result": 90},
      {"measurement": "phytotoxicity rating ECHCG", "setting": "[12]; 63 g ai/ha", "result": 0},
      {"measurement": "phytotoxicity rating ECHCG", "setting": "[12]; 250 g ai/ha", "result": 0},
      {"measurement": "phytotoxicity rating IPOHE", "setting": "[13]; 63 g ai/ha", "result": 10},
      {"measurement": "phytotoxicity rating IPOHE", "setting": "[13]; 250 g ai/ha", "result": 20},
      {"measurement": "CASOB phytotoxicity rating", "setting": "[14]; 63 g ai/ha", "result": 10},
      {"measurement": "CASOB phytotoxicity rating", "setting": "[14]; 250 g ai/ha", "result": 10},
      {"measurement": "SETVI phytotoxicity rating", "setting": "[15]; 63 g ai/ha", "result": 0},
      {"measurement": "SETVI phytotoxicity rating", "setting": "[15]; 250 g ai/ha", "result": 0},
      {"measurement": "DIGSA phytotoxicity rating", "setting": "[16]; 63 g ai/ha", "result": 0},
      {"measurement": "DIGSA phytotoxicity rating", "setting": "[16]; 250 g ai/ha", "result": 0},
      {"measurement": "AMARE phytotoxicity rating", "setting": "[17]; 63 g ai/ha", "result": 10},
      {"measurement": "AMARE phytotoxicity rating", "setting": "[17]; 250 g ai/ha", "result": 0},
      {"measurement": "SORHA phytotoxicity rating", "setting": "[18]; 63 g ai/ha", "result": 0},
      {"measurement": "SORHA phytotoxicity rating", "setting": "[18]; 250 g ai/ha", "result": 0},
      {"measurement": "CHEAL phytotoxicity rating", "setting": "[19]; 63 g ai/ha", "result": 30},
      {"measurement": "CHEAL phytotoxicity rating", "setting": "[19]; 250 g ai/ha", "result": 40},
      {"measurement": "ABUTH phytotoxicity rating", "setting": "[20]; 63 g ai/ha", "result": 70},
      {"measurement": "ABUTH phytotoxicity rating", "setting": "[20]; 250 g ai/ha", "result": 80},
      {"measurement": "ECHCG phytotoxicity rating", "setting": "[21]; 63 g ai/ha", "result": 0},
      {"measurement": "ECHCG phytotoxicity rating", "setting": "[21]; 250 g ai/ha", "result": 0},
      {"measurement": "IPOHE phytotoxicity rating", "setting": "[22]; 63 g ai/ha", "result": 50},
      {"measurement": "IPOHE phytotoxicity rating", "setting": "[22]; 250 g ai/ha", "result": 40}
    ]}
  ]
}
